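Assay format: 96-well plates, 48-hour exposure. Here, GI50 denotes the concentration required for 50% inhibition of growth. TGI marks complete inhibition of growth.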
Experiments:
Experiment in all cases: NCI tumour cell line growth inhibition, 48 h
CAKI-1 renal = system: CAKI-1 renal
CCRF-CEM leukemia = system: CCRF-CEM leukemia
HOP-92 NSCLC = system: HOP-92 NSCLC
K-562 leukemia = system: K-562 leukemia
NCI-H226 lung = system: NCI-H226 lung
OVCAR-3 ovarian = system: OVCAR-3 ovarian
OVCAR-5 ovarian = system: OVCAR-5 ovarian
SK-OV-3 ovarian = system: SK-OV-3 ovarian
SNB-75 CNS = system: SNB-75 CNS
SF-539 CNS = system: SF-539 CNS

Row | SMILES | TGI (CAKI-1 renal) [µM] | TGI (CCRF-CEM leukemia) [µM] | TGI (HOP-92 NSCLC) [µM] | TGI (K-562 leukemia) [µM] | TGI (NCI-H226 lung) [µM] | TGI (OVCAR-3 ovarian) [µM] | TGI (OVCAR-5 ovarian) [µM] | TGI (SK-OV-3 ovarian) [µM] | TGI (SNB-75 CNS) [µM] | TGI (SF-539 CNS) [µM] | GI50 (CAKI-1 renal) [µM] | GI50 (HOP-92 NSCLC) [µM] | GI50 (NCI-H226 lung) [µM] | GI50 (OVCAR-3 ovarian) [µM] | GI50 (OVCAR-5 ovarian) [µM] | GI50 (SF-539 CNS) [µM] | GI50 (SNB-75 CNS) [µM] | GI50 (CCRF-CEM leukemia) [µM] | GI50 (K-562 leukemia) [µM] | GI50 (SK-OV-3 ovarian) [µM]
1 | OCC1NC(CO)C(O)C1O (centres undefined) | > 100 | > 100 | > 100 | > 100 | > 100 | > 100 | > 100 | > 100 | > 100 |  |  |  |  |  |  |  |  |  |  | 
2 | Nc1ccc(C2(c3ccc(N)cc3)C3CC4CC(C3)CC2C4)cc1 | 31.9 | 25.3 | 28.5 | 47.4 | 45.1 | 25.1 | 32.7 | 30 |  |  |  |  |  |  |  |  |  |  |  | 
3 | O=Nn1c2ccccc2c2ccccc21 | > 100 | > 100 | > 100 | > 100 | > 100 | > 100 | > 100 | > 100 | > 100 | > 100 |  |  |  |  |  |  |  |  |  | 
4 | CC(C)N(CCNc1nc(C(Cl)(Cl)Cl)nc2cc(Cl)ccc12)C(C)C | 3.17 |  | 3.17 |  | 3.57 | 3.66 | 2.48 |  | 3.84 | 3.38 | 1.6 | 1.01 | 1.68 | 1.68 | 1.16 | 1.82 | 1.84 |  |  | 
5 | Cc1ccc(S(=O)(=O)NCCCSCCN)cc1 |  | > 100 | > 100 | > 100 | > 100 | > 100 |  | > 100 | > 100 |  |  |  |  |  |  |  |  |  |  | 
6 | COc1ncnc2c(Cl)c(C(O)c3ccccc3)c(Cl)cc12 (centres undefined) | > 100 |  | 65.4 | 69.3 |  | > 100 | > 100 | 49 | 97.8 | 50.2 |  |  |  |  |  |  |  |  |  | 
7 | Fc1ccc(C2CC(c3cccc(Nc4ccncc4)c3)=NN2c2ccccc2)cc1 (centres undefined) | 3.02 | 10.2 | 2.73 | 6.86 | 8.78 | 3.24 | 5.27 | 19.9 | 2.87 | 3.06 | 1.6 | 1.33 | 2.48 | 1.75 | 2.18 | 1.65 | 1.29 | 3.22 | 2.42 | 5.7
8 | O=C(Nc1ccc(C(F)(F)F)cc1[N+](=O)[O-])C(=O)Nn1c(=S)[nH]c2ccccc2c1=O | > 100 | > 100 | > 100 | > 100 | > 100 |  | > 100 | > 100 | > 100 | > 100 |  |  |  |  |  |  |  |  |  | 
9 | CCOP(=O)(OCC)C(Cc1c[nH]c2ccccc12)C(=O)O (centres undefined) | > 100 | > 100 | > 100 | > 100 | > 100 | > 100 | > 100 | > 100 | > 100 |  |  |  |  |  |  |  |  |  |  | 
10 | CC=C/C=C/[C@@H]1O[C@](O)([C@H](CC)C(=O)NC/C=C/C=C(\C)[C@@H](OC)[C@@H](C)[C@@H]2O[C@H](/C=C/C=C/C=C(\C)C(=O)c3c(O)cc[nH]c3=O)[C@H](O)[C@@H]2O)[C@H](O)[C@H](O)C1(C)C |  |  | > 100 | > 100 |  | > 100 | > 100 | > 100 | > 100 | > 100 |  |  |  |  |  |  |  |  |  | 
11 | COc1ccc(/C=C/c2cc(O)cc(OC3OC(CO)C(O)C(O)C3O)c2)cc1O (centres undefined) | > 100 | > 100 | > 100 | > 100 | > 100 | > 100 | > 100 | > 100 | > 100 | > 100 |  |  |  |  |  |  |  |  |  | 
12 | COc1ccc(CCn2ccc(C)n2)c(OC)c1 | > 100 | > 100 |  | > 100 |  | > 100 | > 100 | > 100 | > 100 | > 100 |  |  |  |  |  |  |  |  |  | 

Reference: PubChem BioAssay (NCI)
